These results are taken from paper PMC12715762, “Discovery of VU6052254: A Novel, Potent M1 Positive Allosteric Modulator” (ACS Chemical Neuroscience, 2025).

The structures appear in SMILES notation.

One series concerns the target Opiate μ (OP3, MOP) (Homo sapiens, UniProt P35372). The series is described as follows: Eurofins radioligand binding.
For the next series, the target named is Calcium Channel N-Type (Rattus norvegicus, UniProt Q02294). The series is described as follows: Eurofins radioligand binding.
The test system of a further series is 1A2. The series is described as follows: CYP450 induction in human hepatocytes (three donors). It counts as cell-based. As to conditions: 10 μM, human hepatocytes from three donors.
For another series, the target named is Interleukin IL-1 R1 (Homo sapiens, UniProt P14778). The series is described as follows: Eurofins radioligand binding.
The target of a further series is 3A5 (Homo sapiens, UniProt P20815). Description: CYP450 phenotyping, recombinant enzymes. Type of series: in vitro ADME. As to conditions: 3A5, panel of eight recombinant enzymes.

Usually inhibition stands for the change of the read-out against control, counted positive when it falls.

3A5, sequence (P20815 whole entry): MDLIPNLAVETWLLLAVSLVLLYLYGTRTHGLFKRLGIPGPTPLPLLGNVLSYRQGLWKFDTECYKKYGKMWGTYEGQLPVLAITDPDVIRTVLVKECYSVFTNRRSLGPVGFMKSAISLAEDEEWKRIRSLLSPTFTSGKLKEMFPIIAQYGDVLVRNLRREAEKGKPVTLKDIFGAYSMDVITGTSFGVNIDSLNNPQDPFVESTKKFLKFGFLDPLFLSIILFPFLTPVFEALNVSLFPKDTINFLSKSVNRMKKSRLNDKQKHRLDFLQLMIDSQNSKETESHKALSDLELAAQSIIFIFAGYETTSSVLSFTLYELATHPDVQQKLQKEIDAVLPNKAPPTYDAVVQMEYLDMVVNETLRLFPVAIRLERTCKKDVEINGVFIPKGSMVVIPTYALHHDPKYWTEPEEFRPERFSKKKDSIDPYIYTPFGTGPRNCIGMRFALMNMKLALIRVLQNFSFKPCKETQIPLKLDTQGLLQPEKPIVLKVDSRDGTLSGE
Calcium Channel N-Type, sequence (Q02294 whole entry): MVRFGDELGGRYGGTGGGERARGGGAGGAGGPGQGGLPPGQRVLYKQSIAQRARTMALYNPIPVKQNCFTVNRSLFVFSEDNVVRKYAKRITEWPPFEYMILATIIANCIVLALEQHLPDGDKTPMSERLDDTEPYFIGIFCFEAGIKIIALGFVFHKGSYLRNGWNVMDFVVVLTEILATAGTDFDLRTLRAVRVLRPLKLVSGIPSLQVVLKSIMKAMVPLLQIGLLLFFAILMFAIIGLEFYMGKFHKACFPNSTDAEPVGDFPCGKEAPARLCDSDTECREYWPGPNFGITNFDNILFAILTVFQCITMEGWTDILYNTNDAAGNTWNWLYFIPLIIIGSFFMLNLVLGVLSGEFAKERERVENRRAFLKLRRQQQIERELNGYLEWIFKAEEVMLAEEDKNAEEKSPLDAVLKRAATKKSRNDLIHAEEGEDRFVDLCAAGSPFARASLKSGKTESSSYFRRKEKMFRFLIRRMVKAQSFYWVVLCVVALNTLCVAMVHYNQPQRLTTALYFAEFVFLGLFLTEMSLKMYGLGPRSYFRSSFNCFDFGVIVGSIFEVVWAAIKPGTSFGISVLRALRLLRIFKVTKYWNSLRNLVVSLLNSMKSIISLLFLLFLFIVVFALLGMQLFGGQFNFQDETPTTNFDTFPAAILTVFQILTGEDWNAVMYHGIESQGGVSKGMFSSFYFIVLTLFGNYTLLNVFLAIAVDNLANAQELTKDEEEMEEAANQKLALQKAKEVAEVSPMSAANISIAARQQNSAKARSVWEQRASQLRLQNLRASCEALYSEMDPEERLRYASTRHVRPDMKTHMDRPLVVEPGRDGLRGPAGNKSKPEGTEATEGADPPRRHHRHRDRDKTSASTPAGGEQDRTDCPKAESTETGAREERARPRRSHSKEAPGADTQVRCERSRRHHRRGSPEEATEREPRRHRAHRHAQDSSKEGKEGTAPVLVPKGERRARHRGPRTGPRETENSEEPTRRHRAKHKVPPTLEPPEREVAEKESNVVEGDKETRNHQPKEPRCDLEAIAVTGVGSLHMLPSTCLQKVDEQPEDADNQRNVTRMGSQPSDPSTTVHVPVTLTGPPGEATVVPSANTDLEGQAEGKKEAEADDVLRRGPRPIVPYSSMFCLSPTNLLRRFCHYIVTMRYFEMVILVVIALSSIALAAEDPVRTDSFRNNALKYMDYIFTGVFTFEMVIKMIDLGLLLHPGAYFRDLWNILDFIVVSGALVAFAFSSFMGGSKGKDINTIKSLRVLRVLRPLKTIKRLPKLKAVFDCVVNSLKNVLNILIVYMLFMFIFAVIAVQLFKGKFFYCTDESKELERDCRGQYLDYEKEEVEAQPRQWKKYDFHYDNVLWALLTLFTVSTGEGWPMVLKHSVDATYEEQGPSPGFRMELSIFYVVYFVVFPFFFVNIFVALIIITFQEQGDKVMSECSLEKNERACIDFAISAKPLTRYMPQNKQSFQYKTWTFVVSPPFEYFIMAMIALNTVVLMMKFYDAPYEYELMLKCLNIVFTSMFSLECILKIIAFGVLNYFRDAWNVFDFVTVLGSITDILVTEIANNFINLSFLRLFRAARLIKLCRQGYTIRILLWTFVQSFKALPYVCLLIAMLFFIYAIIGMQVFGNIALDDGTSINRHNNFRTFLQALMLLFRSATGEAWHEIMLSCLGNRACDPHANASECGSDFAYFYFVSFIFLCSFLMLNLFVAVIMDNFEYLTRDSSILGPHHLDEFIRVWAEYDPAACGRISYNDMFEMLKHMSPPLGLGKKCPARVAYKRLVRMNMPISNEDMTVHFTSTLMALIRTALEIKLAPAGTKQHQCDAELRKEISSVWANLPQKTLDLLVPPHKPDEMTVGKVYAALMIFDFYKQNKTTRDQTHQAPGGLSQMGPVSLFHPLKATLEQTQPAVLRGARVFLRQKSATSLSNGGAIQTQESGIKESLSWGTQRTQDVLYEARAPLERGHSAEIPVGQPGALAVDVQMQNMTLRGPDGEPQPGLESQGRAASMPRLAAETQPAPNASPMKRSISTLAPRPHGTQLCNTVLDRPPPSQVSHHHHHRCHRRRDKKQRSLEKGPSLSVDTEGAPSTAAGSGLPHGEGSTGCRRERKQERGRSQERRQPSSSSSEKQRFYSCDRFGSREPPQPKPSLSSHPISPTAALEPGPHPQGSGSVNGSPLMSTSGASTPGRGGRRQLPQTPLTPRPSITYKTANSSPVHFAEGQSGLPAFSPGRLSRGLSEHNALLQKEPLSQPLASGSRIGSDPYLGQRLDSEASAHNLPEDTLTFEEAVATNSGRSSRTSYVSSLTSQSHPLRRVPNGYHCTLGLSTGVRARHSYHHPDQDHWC
Opiate μ (OP3, MOP), sequence (P35372 whole entry): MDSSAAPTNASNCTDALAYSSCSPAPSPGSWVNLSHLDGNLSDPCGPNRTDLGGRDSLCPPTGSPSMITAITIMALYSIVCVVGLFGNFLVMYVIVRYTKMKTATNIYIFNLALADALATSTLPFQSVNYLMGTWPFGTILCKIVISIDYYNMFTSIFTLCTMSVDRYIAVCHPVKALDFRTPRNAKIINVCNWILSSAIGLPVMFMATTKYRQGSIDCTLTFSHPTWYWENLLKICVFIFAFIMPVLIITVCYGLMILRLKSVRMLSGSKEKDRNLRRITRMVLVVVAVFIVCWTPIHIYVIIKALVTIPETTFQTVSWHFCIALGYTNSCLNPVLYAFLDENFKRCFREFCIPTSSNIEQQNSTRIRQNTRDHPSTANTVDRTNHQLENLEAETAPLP
Interleukin IL-1 R1, sequence (P14778 18-569): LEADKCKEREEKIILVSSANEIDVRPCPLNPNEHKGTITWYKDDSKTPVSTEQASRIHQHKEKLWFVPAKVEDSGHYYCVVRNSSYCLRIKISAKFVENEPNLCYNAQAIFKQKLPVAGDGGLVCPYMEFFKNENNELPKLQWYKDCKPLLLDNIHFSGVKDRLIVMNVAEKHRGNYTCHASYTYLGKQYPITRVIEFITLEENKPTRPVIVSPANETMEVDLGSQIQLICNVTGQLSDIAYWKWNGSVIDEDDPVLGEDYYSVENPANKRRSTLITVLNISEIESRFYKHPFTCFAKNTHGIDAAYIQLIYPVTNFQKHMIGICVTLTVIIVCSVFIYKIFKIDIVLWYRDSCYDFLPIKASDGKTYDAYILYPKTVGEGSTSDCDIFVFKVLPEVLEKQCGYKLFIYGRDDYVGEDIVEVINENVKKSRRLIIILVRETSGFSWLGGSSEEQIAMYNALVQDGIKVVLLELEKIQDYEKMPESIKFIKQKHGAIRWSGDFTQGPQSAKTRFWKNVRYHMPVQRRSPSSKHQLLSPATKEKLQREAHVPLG

Consider `Cn1cc2c(-c3cc(F)c(CN4Cc5ncccc5C4=O)c(F)c3)ccc(C(C)(C)O)c2n1` [compound 7], for which the inhibition at 10 µM on Opiate μ (OP3, MOP) was 2%; at Calcium Channel N-Type, -11%; at Interleukin IL-1 R1, -10%. In the series on 1A2, this compound displayed a 1A2 induction of 4.9%. Besides, at 3A5, the “contribution to metabolism, CYP450 phenotyping” value stood at 3.2%.
